pKi: −log10 of the molar value. Where a SMILES comes first, the peptide text is derived from it. Bridges are numbered along the chain shown (N, C = ends). [ ]: non-standard residue; d: D form.
What was measured:
Mu-type opioid receptor = Mu-type opioid receptor (Homo sapiens, UniProt P35372); assay: Displacement of [3H]DAMGO from recombinant human mu opioid receptor expressed in CHO cell membranes after 120 mins by liquid scintillation counter analysis
[1] = molecular target: Delta-type opioid receptor (Homo sapiens, UniProt P41143); assay: Displacement of [3H]deltorphin-2 from recombinant human delta opioid receptor expressed in CHO cell membranes after 120 mins by liquid scintillation counter analysis
[2] = molecular target: Kappa-type opioid receptor (Homo sapiens, UniProt P41145); assay: Displacement of [3H]U-69593 from recombinant human kappa opioid receptor expressed in CHO cell membranes after 120 mins by liquid scintillation counter analysis
Kappa-type opioid receptor, sequence (P41145 whole entry): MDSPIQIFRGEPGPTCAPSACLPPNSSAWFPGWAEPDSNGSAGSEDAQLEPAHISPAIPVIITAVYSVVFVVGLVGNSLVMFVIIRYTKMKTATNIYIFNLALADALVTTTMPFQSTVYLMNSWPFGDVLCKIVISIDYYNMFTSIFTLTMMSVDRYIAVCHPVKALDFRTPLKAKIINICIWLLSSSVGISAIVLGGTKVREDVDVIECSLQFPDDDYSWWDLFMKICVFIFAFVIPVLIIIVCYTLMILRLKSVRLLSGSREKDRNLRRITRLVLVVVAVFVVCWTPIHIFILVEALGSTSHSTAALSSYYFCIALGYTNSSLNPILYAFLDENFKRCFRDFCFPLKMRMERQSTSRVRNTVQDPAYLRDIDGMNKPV

Mu-type opioid receptor, sequence (P35372 whole entry): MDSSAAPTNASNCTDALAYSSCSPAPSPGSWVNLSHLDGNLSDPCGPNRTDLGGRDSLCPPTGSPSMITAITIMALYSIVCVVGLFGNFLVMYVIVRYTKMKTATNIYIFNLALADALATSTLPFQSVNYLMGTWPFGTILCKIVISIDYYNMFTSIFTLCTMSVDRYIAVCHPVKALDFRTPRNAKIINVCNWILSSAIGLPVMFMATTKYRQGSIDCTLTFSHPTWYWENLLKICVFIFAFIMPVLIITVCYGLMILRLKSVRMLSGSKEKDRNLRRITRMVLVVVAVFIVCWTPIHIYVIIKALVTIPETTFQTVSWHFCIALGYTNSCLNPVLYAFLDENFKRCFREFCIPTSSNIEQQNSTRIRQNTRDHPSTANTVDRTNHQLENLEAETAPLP
Delta-type opioid receptor, sequence (P41143 whole entry): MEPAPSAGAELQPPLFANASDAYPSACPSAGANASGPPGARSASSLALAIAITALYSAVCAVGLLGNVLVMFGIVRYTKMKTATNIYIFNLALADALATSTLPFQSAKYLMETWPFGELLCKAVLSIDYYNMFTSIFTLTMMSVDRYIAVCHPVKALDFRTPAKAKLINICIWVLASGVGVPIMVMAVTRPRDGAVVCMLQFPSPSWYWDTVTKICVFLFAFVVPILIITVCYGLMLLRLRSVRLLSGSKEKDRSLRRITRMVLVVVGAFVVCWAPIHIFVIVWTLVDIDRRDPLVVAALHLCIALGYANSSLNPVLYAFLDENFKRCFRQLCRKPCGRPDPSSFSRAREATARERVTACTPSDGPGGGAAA

| SMILES | pKi (Mu-type opioid receptor) | pKi [1] | pKi [2] |
| --- | --- | --- | --- |
| NC(=O)[C@@H]1CC(=O)NCCCC[C@@H](NC(=O)[C@@H](N)Cc2ccc(O)cc2)C(=O)N[C@@H](Cc2ccccc2)C(=O)N2CCCC[C@H]2C(=O)N1 | 8.50 | 7.30 | 5.17 |
| NC(=O)[C@@H]1CC(=O)NCCCC[C@@H](NC(=O)[C@@H](N)Cc2ccc(O)cc2)C(=O)N[C@@H](Cc2ccccc2)C(=O)N2CCC[C@H]2C(=O)N1 | 9.34 | 7.07 | 6.05 |
| NC(=O)[C@@H]1CC(=O)NCCCC[C@@H](NC(=O)[C@@H](N)Cc2ccc(O)cc2)C(=O)N[C@@H](Cc2ccccc2)C(=O)N2CCC(CC2)C(=O)N1 | 8.94 | 7.12 | 5.26 |
| NC(=O)[C@@H]1CC(=O)NCCCC[C@@H](NC(=O)[C@@H](N)Cc2ccc(O)cc2)C(=O)N[C@@H](Cc2ccccc2)C(=O)N2CCC[C@H](C2)C(=O)N1 | 9.05 | 7.17 | 5.33 |
| NC(=O)[C@@H]1CC(=O)NCCCC[C@@H](NC(=O)[C@@H](N)Cc2ccc(O)cc2)C(=O)N[C@@H](Cc2ccccc2)C(=O)N[C@@H](Cc2ccccc2)C(=O)N1 (H-Y[dK]FFD-NH2; lactam 2-5) | 9.25 | 6.55 | 8.63 |
